Results reported in patent US5591757A, “Dihydropyridine composition” (Yamanouchi Pharmaceutical Co., Ltd., priority 1984, dated 1997).
Read-outs that look alike come from different tables or passages of the source.

Key:
[1] = tested on: mean arterial blood pressure (MBP) and coronary blood flow (Cor. BF); experiment: Hemodynamic effects in anesthetized open-chest dogs (i.v.); assay type: in vivo, mongrel dogs; details: Canis lupus familiaris; for change in vivo at 0.3 mg/kg: 0.3 mg/kg iv, anesthetized dogs; for change in vivo at 0.1 mg/kg: iv
Description: Mongrel dogs of either sex were anesthetized with pentobarbital sodium (30 mg/kg iv). The animals were artificially ventilated with room air. The chest was opened at the left 4th intercostal space. Mean arterial blood pressure (MBP), heart rate (HR), left ventricular pressure (LVP), max. dLVP/dt, mean pulmonary arterial blood pressure (MPAP), cardiac output (CO) and coronary blood flow (Cor. BF) were measured. The test compounds were injected into the femoral vein. […] BF from control values induced by intravenous injection of test compounds.

left coronary artery = experiment: Coronary vasodilating effects in dogs (intracoronary); assay type: in vivo, mongrel dogs
Description: Mongrel dogs of either sex were anesthetized and ventilated as previously described. A thoracotomy was performed at the 4th intercostal space. Following an intravenous injection of heprin (1000 units/kg), blood from the distal end of the cannulated carotid artery was pumped into circumflex branch of the left coronary artery using a servocontrolled peristaltic pump which maintained a constant perfusion pressure of 120 mmHg by means of a pump controller. An electromagnetic flow probe was inserted in the circit to record blood flow through the cannulated coronary artery. The test compounds were administered directly into the rubber tubing connected close to the coronary artery cannula.

dog coronary artery = experiment: Effect on 3,4-diaminopyridine (3,4-DAP)-induced rythmic contraction; assay type: cell-based; details: Canis lupus familiaris, read-out: IC50, 3,4-DAP contraction
Description: The ring segments were cannulated with two triangle stainless-steel hooks and suspended vertically in Krebs-Henseleit solution under the same condition described previously. Preparations were set up under a resting tension of 1.0 g and rhythmic contractions were induced by application of 10 mM 3,4-DAP. Test compound was cumulatively added into the medium. IC50 was estimated from dose-response curves (Table 2, column 2).

calcium channels = experiment: [^3 H]-nitrendipine binding to rat brain membrane
Beta-adrenoceptor [2] = target: T1, Beta-adrenoceptor (Rattus norvegicus, UniProt P18090); experiment: cell-based; details: isolated rat right atria, (-)-isoproterenol-induced positive chronotropy; read-out: KB (antagonist dissociation constant)
Description: Beta-adrenoceptor blocking effect of test compounds was estimated by antagonism of (-)-isoproterenol-induced positive chronotropy.

rabbit thoracic aorta = experiment: Effect on KCl-induced contraction of rabbit aorta; details: Oryctolagus cuniculus, read-out: IC50, K contraction
Beta-adrenoceptor [3] = target: T1, Beta-adrenoceptor; experiment: Beta-adrenoceptor blocking effect in reserpinized rats (isoproterenol chronotropy); assay type: in vivo, male Wistar rats; design: The rats were anesthetized with pentobarbital sodium; from tissue; host or cells: heart in the living anesthetized male Wistar rat (reserpine-pretreated, vagotomized); details: isoproterenol 0.1 μg/kg iv, cumulative iv doses, read-out: Beta-Blocking ED50 (50% blockade of positive chronotropic response to isoproterenol)
Description: (§1) The rats were pretreated with reserpine (8 mg/kg ip), 18 hr before experiments. […] The heart rate was measured with a cardiotachometer triggered by the QRS of the ECG (lead II) and recorded on a polygraph. After the Control response to isoproterenol at a dose of 0.1 μg/kg iv was obtained, the test compound was injected iv in increasing doses at 20 min intervals.

Beta-adrenoceptor [4] = target: T1, Beta-adrenoceptor; experiment: Intrinsic sympathomimetic activity (ISA) in reserpinized rats; assay type: in vivo, male Wistar rats; design: The rats were anesthetized with pentobarbital sodium; from tissue; host or cells: heart in the living anesthetized male Wistar rat (reserpine-pretreated, vagotomized); details: reserpine-pretreated rats, iv
Description: as §1
In this series of experiments, intrinsic sympathomimetic activity (ISA) was also evaluated.

[5] = read-out: percent change of Cor. BF from control
[6] = read-out: percent change of MBP from control
[7] = dog coronary artery, 10 mM 3,4-DAP

T1 sequence (P18090 whole entry): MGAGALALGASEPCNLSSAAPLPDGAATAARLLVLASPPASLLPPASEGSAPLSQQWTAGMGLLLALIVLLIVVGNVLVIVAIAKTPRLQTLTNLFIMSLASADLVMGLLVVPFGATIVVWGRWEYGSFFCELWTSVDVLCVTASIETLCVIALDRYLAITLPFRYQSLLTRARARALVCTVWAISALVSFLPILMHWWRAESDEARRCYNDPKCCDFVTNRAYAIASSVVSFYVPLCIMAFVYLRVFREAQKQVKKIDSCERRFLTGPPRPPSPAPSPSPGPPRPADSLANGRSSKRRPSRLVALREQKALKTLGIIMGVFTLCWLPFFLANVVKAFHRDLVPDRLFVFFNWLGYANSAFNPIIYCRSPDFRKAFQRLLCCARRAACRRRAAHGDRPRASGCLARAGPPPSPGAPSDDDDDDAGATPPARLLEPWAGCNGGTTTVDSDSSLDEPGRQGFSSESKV

Row | Compound | change in vivo at 0.3 mg/kg [1, 5] [%] | change in vivo at 0.3 mg/kg [1, 6] [%] | ED100 pap (dose for 100% increase of Cor. BF; maximum response to papaverine 300 μg ia = 100%) (left coronary artery) [μg ia] | Duration of action of coronary vasodilating effect (left coronary artery; intracoronary (ia)) [min] | IC50 (dog coronary artery; [7]) [µM] | IC50 (calcium channels) [µM] | Ki (calcium channels) [µM] | Slope, ^3 H-Nitrendipine binding (calcium channels) | Kb (Beta-adrenoceptor [2]) [µM] | IC50 (rabbit thoracic aorta) [µM] | ED50 (Beta-adrenoceptor [3]) [mg/kg] | ISA (increase in HR) (Beta-adrenoceptor [4]) | change in vivo at 0.1 mg/kg [1, 5] [%] | change in vivo at 0.1 mg/kg [1, 6] [%] | IC50 (dog coronary artery) [µM]
1 | COC(=O)C1=C(C)NC(C)=C(C(=O)OCCCCCCNCC(O)COc2ccccc2)C1c1cccc([N+](=O)[O-])c1.Cl (stereo not shown) [Example 12, 6-(2-hydroxy-3-phenoxy-propylamino)hexyl methyl 2,6-dimethyl-4-(m-nitro-phenyl)-1,4-dihydropyridine-3,5-dicarboxylate hydrochloride] | 45 | -26 | 100 | > 60 | 0.019 | 0.012 | 0.00615 | 1.38 | 0.063 | 0.033 | 0.6 | - |  |  | 
2 | COC(=O)C1=C(C)NC(C)=C(C(=O)OCCN(C)Cc2ccccc2)C1c1cccc([N+](=O)[O-])c1 (stereo not shown) [Nicardipine, reference compound] |  |  |  |  | 0.0021 | 0.0016 | 0.0009 | 0.90 |  | 0.001 |  |  |  |  | 
3 | COc1ccc(CCN(C)CCCC(C#N)(c2ccc(OC)c(OC)c2)C(C)C)cc1OC (stereo not shown) [Verapamil, reference compound] |  |  | 8 |  |  |  |  |  |  | 0.075 |  |  | 95 | -23 | 0.126
